According to patent US10654847B2, “Substituted 2-(4-heterocyclylbenzyl)isoindolin-1-one analogs as positive allosteric modulators of the muscarinic acetylcholine receptor M1” (Vanderbilt University, priority 2011, dated 2020):

Biological target: T1, mAChR M1 (UniProt P11229)
T1 sequence (P11229 1-460): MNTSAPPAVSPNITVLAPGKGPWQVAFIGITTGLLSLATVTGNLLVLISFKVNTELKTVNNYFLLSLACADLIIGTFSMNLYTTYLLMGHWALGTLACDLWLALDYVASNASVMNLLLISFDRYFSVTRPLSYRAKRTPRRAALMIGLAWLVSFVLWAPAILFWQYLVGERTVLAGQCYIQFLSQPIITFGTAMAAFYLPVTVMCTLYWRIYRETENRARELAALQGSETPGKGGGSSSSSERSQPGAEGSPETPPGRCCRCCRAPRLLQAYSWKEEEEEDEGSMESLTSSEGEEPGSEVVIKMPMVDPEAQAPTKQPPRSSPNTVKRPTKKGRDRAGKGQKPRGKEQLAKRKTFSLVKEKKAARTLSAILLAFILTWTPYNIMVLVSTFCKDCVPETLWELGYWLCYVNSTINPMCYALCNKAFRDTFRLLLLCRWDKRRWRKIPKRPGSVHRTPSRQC
Experiment: mAChR M1 cell-based functional assay (calcium mobilization, potentiation of EC20 acetylcholine response)
Conditions: for Emax (%): % ACh maximum at 30 μM, mAChR M1-expressing CHO-K1 cells, calcium flux; for pEC50 / EC50: positive allosteric modulation of EC20 ACh response, mAChR M1 CHO-K1 cells; for pEC50: <5 estimated where no plateau; for EC50: >10 μM estimated where no plateau, read-out: EC50

For `O=S1(=O)c2ccccc2CN1Cc1ccc(-c2cnns2)cc1` [Example B117], the “Emax (%)” value was under 30%, the pEC50 was under 5.00 and the EC50 was over 10 µM.
With `O=C1c2cccnc2CN1Cc1ccc(-c2cncc(Cl)c2)cc1F` [Example B31] the “Emax (%)” value was 35%, the pEC50 was 5.34 and the EC50 was 4.57 µM.
